Test results as given in publication PMC9834611 (Pharmacology Research & Perspectives, 2023).
Like-named read-outs stand apart in the source and are kept apart here.

Assays:
[1] = Human PBPK model Monte Carlo simulation and model parameters
ABCB1 [2] = test: ABCB1 transport Vmax optimized to in vivo canine PK data; settings: dog and human models
Excerpt: The transfer of drugs at the BBB is unique as the mass transfer out of the vascular space surrounding the brain tissue is hindered by a permeability barrier. […] Coupling the ABCB1 transport equations as expressed above with permeability‐limited modeling equations from Choi et al.,[23] the following equations are proposed where Equation ( 4 ) describes the amount of drug within the brain tissue and Equation ( 5 ) describes the amount of drug in the vascular space surrounding the tissue: (4) VCNS*dCCNS,T/dt=PSA×CA−CCNS,V−sfABCB1,CNS×VCNS×VMAXABCB1×CCNS,V/KMABCB1+CCNS,V (5) VBB*dCBB/dt=QCNS*CA−CV−PSA×CA−CV,CNA+sfCNS×VCNS×VMAXABCB1×CCNS,V/KMABCB1+CCNS,V where VCNS is the volume of the brain tissue, VBB is the volume consisting of brain blood, CCNS,T is the concentration of drug in the brain tissue, PSA is the permeability surface area product, sfABCB1,CNS is the relative ABCB1 expression in brain tissue, and CBB is the concentration of drug in the brain blood. VCNA and VBB were set to 97% and 3% of total brain volume, respectively.[37] […] The parameter optimization method was conducted as described previously with nonlinear least squares regression. […] The corresponding Vmax,ABCB1 value was optimized to in vivo canine PK data. […]

[3] = Canine PBPK model Monte Carlo simulation and model parameters; settings: dog model
[4] = tested on: plasma proteins, primarily alpha‐1 acid glycoprotein; settings: cited from earlier work
ABCB1 [5] = test: ABCB1‐driven transport kinetics fit to wild‐type mouse brain tissue PK data
Excerpt: The rate of change in the amount of drug in tissues with ABCB1 expression is as follows: (3) dAT/dt=QC×CA−CVT−FABCB1,T×Vmax,ABCB1×Cv/Km+Cv In which ABCB1‐mediated efflux of drug is characterized by Michaelis–Menten saturable kinetics, where FABCB1,T is the scaling factor for the relative expression of ABCB1 transport protein in relevant tissues, Vmax,ABCB1 is the maximum velocity of ABCB1 transport out of the tissue compartment, and Km is the associated Michaelis–Menten constant. Scaling factors, FABCB1,T , were acquired from Systems Pharmacology for ABCB1 relative tissue expression as previously reported.[36]
The transfer of drugs at the BBB is unique as the mass transfer out of the vascular space surrounding the brain tissue is hindered by a permeability barrier. […] Coupling the ABCB1 transport equations as expressed above with permeability‐limited modeling equations from Choi et al.,[23] the following equations are proposed where Equation ( 4 ) describes the amount of drug within the brain tissue and Equation ( 5 ) describes the amount of drug in the vascular space surrounding the tissue: (4) VCNS*dCCNS,T/dt=PSA×CA−CCNS,V−sfABCB1,CNS×VCNS×VMAXABCB1×CCNS,V/KMABCB1+CCNS,V (5) VBB*dCBB/dt=QCNS*CA−CV−PSA×CA−CV,CNA+sfCNS×VCNS×VMAXABCB1×CCNS,V/KMABCB1+CCNS,V where VCNS is the volume of the brain tissue, VBB is the volume consisting of brain blood, CCNS,T is the concentration of drug in the brain tissue, PSA is the permeability surface area product, sfABCB1,CNS is the relative ABCB1 expression in brain tissue, and CBB is the concentration of drug in the brain blood. VCNA and VBB were set to 97% and 3% of total brain volume, respectively.[37] […] The parameter optimization method was conducted as described previously with nonlinear least squares regression. […] The corresponding Vmax,ABCB1 value was optimized to in vivo canine PK data. […] Canine model parameter values were thus fit to the patients without concurrent treatment of omeprazole to minimize the influence of potential drug–drug interactions.

human ABCB1 = tested on: human ABCB1; parameters: method as in PMID 17142983; settings: dog and human models, cited from earlier work
[6] = Mouse PBPK model simulations and model parameters
Excerpt: This model thus aims to elucidate the implications of drug pharmacokinetics and mechanisms of distribution, ultimately providing a modeling base for extrapolation of simulated concentration profiles to clinical settings. The primary drivers of vinca disposition are fraction unbound drug to plasma proteins, intercellular tubulin binding, metabolism, and ABCB1‐mediated transport. With exception to the brain, tissue compartments are defined by a well‐stirred, flow‐limited model in which the concentration of drug leaving the compartment is equal to the unbound drug concentration within the tissue. The blood–brain barrier (BBB) is distinctive as the tight junctions and prolific expression of efflux transporter proteins provide a highly restrictive barrier to many lipophilic molecules. The brain is thus defined by a permeability‐limited model dictated by a modification of Fick's Law of diffusion in which the permeability‐surface area product constitutes the tissue permeation coefficient, the capillary surface area permitting diffusion, and the thickness of the cellular membrane.[32] ABCB1 is highly expressed at the blood–brain barrier as well as in the liver, gut, and kidneys, facilitating drug excretion.[14], [15]
Physiological parameters for tissue‐specific percent body weight and cardiac output for mouse, canine, and human were sourced from Brown et al.[27] and presented in Table 1. All tissue densities were approximated to be 1 kg/L. Cardiac output for respected species was estimated using a previously derived allometric scaling relationship for unanesthetized mice.[33] […] The rate of change in the amount of drug within generic, non‐eliminating compartments is governed by the following mass balance equation: (1) dAC/dt=VC×dCC/dt=QC×CA−CVT where AC is the amount of drug in the tissue, VC is the volume of the tissue (assuming static volume), CC is the concentration within the tissue, QC is the tissue perfusion rate, CA is the arterial blood drug concentration, and CVT is the venous blood drug concentration.
Tissue‐specific‐binding capacities, BC , were obtained from studies where tubulin concentrations were determined from tubulin‐binding capacities for colchicine[12] and are reported in Table 2. […] Relative tissue tubulin‐binding capacities were thus assumed to be equivalent for the mouse, dog, and human PBPK model developed herein. […] Partition coefficients, PC , for respective tissues were determined by performing parameter optimization in MATLAB's tool, SimBiology, using a nonlinear least squares regression estimation method from the optimization toolbox. The statistical modeling method fit pooled Mdr1a/b (−/−) tissue data generating one set of partition parameters for all tissues which are reported in Table 1.
The transfer of drugs at the BBB is unique as the mass transfer out of the vascular space surrounding the brain tissue is hindered by a permeability barrier.

dog liver microsomes = settings: dog and human models, fit of digitized data, cited from earlier work
[7] = VBL PK study in dogs (clinical trial, serum); settings: dog, iv, 2.5 mg/m^2 IV bolus, observed; for AUC(0-t): 2.5 mg/m2, AUCt, dogs, 0 to 24 h; for half-life: 2.5 mg/m2, t1/2, dogs
[8] = bone marrow, optimized to mouse mdr1a/b (−/−) data
[9] = optimized to mouse mdr1a/b (−/−) data
[10] = mouse model, optimized to mouse mdr1a/b (−/−) data
[11] = concomitant prednisone/omeprazole/diphenhydramine (POD)

SMILES: CC[C@]1(O)C[C@@H]2CN(CCc3c([nH]c4ccccc34)[C@@](C(=O)OC)(c3cc4c(cc3OC)N(C)[C@H]3[C@@](O)(C(=O)OC)[C@H](OC(C)=O)[C@]5(CC)C=CCN6CC[C@]43[C@@H]65)C2)C1 [VBL, Vinblastine]
- Partition coefficient PCblood [1]: 1.0
- Partition coefficient PCBM [1, 8]: 1.0
- Partition coefficient PCCNS [1, 9]: 1.21
- Partition coefficient PCGut [1, 9]: 1.08
- Partition coefficient PCKidney [1, 9]: 3.73
- Partition coefficient PCLiver [1, 9]: 2.26
- VmABCB1 (ABCB1 [2]; optimized to in vivo canine PK data): 64.54 nmol/L/h
- Vmbil (biliary transport Vmax) (ABCB1 [2]; set equivalent to ABCB1 value): 64.54 nmol/L/h
- Partition coefficient PCblood [3]: 1.0
- Partition coefficient PCBM [3, 8]: 1.0
- Partition coefficient PCCNS [3, 9]: 1.21
- Partition coefficient PCGut [3, 9]: 1.08
- Partition coefficient PCKidney [3, 9]: 3.73
- Partition coefficient PCLiver [3, 9]: 2.26
- percentage of drug bound to plasma proteins [4]: 48–99%
- Protein binding (range) ([4]; value used in dog model): 48–99%
- Protein binding (range) ([4]; value used in human model): 48–99%
- Protein binding (range) ([4]; value used in mouse model): 48–99%
- Vmbil (biliary transport Vmax) (ABCB1 [5]; WT mouse, set equivalent to ABCB1 value): 928.8 nmol/L/h
- Vmax, ABCB1‐driven transport (ABCB1 [5]; fit to wild‐type mouse brain tissue PK data): 928.8 nM/h
- KmABCB1 (ABCB1 [5]; mouse, optimized parameter): 6.41 nmol/L
- VmABCB1 (ABCB1 [5]; mouse, optimized parameter): 928.8 nmol/L/h
- KmABCB1 (human ABCB1; based on ATPase activity): 5760 nmol/L
- Km (human ABCB1; set equivalent to ABCB1 value, read-out: Kmbil (biliary transport Km)): 5.76 µM
- Vmbil (biliary transport Vmax) ([6]; mdra1a/b (−/−) mouse, optimized to fecal data): 23.35 nmol/L/h
- Partition coefficient PCblood ([6]; mouse model): 1.0
- Partition coefficient PCBM ([6]; mouse model, bone marrow, optimized to mouse mdr1a/b (−/−) data): 1.0
- Partition coefficient PCCNS [6, 10]: 1.21
- Partition coefficient PCGut [6, 10]: 1.08
- Partition coefficient PCKidney [6, 10]: 3.73
- Partition coefficient PCLiver [6, 10]: 2.26
- Vmmet (metabolism Vmax) (dog liver microsomes; extrapolated using 55 mg protein/g liver): 189.6 µmol/L/h
- Km (dog liver microsomes; read-out: Kmmet (metabolism Km)): 9.53 µM
- AUC(0-t) ([7]; concomitant prednisolone only): 0.186 µM·h
- AUC(0-t) [7, 11]: 0.0477 µM·h
- half-life ([7]; all patients regardless of concomitant treatment): 18.6 h
- half-life ([7]; concomitant prednisolone only): 15.7 h
- half-life [7, 11]: 5.15 h
